Experimental data from ChEMBL document CHEMBL4196212, “Targeting Cytochrome P450 (CYP) 1B1 Enzyme with Four Series of A-Ring Substituted Estrane Derivatives: Design, Synthesis, Inhibitory Activity, and Selectivity” (J Med Chem, 2018).

Legend:
CYP1A1 [1] = target: T1, CYP1A1 (Homo sapiens, UniProt P04798); experiment: Inhibition of recombinant human CYP1A1 at 3 uM incubated for 25 mins using 7-ethyl-O-resorufin substrate in presence of NADPH regenerating system by fluorescence based ethoxyresorufin-O-deethylase assay; assay type: ADME; conditions: recombinant human CYP1A1, probe 7-ethyl-O-resorufin (7-ethoxyresorufin)
T1 sequence (P04798 whole entry): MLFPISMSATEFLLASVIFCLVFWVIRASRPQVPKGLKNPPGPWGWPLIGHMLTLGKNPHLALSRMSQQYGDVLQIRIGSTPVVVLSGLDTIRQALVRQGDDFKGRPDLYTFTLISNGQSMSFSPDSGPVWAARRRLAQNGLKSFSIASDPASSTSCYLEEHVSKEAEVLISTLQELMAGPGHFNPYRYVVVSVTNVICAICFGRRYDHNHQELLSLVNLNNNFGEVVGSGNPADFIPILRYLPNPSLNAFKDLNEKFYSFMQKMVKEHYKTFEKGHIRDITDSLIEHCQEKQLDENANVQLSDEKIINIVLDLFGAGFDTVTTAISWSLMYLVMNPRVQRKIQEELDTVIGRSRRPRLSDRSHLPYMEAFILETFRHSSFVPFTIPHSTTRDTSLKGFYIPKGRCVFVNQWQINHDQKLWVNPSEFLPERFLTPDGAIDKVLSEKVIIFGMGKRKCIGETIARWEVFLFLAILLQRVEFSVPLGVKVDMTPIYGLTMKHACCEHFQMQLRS

Cytochrome P450 1B1 = target: T2, Cytochrome P450 1B1 (Homo sapiens, UniProt Q16678); experiment: Inhibition of recombinant human CYP1B1 incubated for 45 mins using 7-ethyl-O-resorufin substrate in presence of NADPH regenerating system by fluorescence based ethoxyresorufin-O-deethylase assay
T2 sequence (Q16678 whole entry): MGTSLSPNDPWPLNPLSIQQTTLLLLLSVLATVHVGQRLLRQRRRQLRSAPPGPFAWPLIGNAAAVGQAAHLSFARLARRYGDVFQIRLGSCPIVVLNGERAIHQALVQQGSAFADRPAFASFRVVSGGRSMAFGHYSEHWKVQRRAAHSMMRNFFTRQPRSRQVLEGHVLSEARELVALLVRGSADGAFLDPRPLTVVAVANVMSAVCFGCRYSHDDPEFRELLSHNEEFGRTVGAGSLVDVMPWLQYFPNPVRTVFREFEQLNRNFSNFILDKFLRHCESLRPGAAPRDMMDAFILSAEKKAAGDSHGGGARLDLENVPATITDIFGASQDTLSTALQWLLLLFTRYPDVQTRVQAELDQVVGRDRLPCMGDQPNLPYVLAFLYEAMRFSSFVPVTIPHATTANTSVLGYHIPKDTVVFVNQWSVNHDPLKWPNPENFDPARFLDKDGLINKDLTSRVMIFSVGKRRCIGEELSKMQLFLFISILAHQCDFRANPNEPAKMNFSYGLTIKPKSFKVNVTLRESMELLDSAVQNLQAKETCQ

Cytochrome P450 1A1 = target: T3, Cytochrome P450 1A1 (Homo sapiens, UniProt P04798); experiment: Inhibition of recombinant human CYP1A1 incubated for 25 mins using 7-ethyl-O-resorufin substrate in presence of NADPH regenerating system by fluorescence based ethoxyresorufin-O-deethylase assay; assay type: ADME
T3 sequence (P04798 whole entry): T1 sequence (P04798 whole entry)

CYP1B1 [2] = target: T4, CYP1B1 (Homo sapiens, UniProt Q16678); experiment: Inhibition of recombinant human CYP1B1 at 0.3 uM incubated for 45 mins using 7-ethyl-O-resorufin substrate in presence of NADPH regenerating system by fluorescence based ethoxyresorufin-O-deethylase assay; conditions: recombinant human CYP1B1, probe 7-ethyl-O-resorufin (7-ethoxyresorufin)
T4 sequence (Q16678 whole entry): T2 sequence (Q16678 whole entry)

CYP1A1 [3] = target: T1, CYP1A1; experiment: Inhibition of recombinant human CYP1A1 at 0.3 uM incubated for 25 mins using 7-ethyl-O-resorufin substrate in presence of NADPH regenerating system by fluorescence based ethoxyresorufin-O-deethylase assay; assay type: ADME; conditions: recombinant human CYP1A1, probe 7-ethyl-O-resorufin (7-ethoxyresorufin)
CYP1B1 [4] = target: T4, CYP1B1; experiment: Inhibition of recombinant human CYP1B1 at 3 uM incubated for 45 mins using 7-ethyl-O-resorufin substrate in presence of NADPH regenerating system by fluorescence based ethoxyresorufin-O-deethylase assay; conditions: recombinant human CYP1B1, probe 7-ethyl-O-resorufin (7-ethoxyresorufin)
Homo sapiens = species: Homo sapiens; experiment: Selectivity index, ratio of IC50 for inhibition of recombinant human CYP1A1 to IC50 for inhibition of recombinant human CYP1B1

Structure (SMILES) | inhibition at 25 min, 3 µM (CYP1A1 [1]) | IC50 (Cytochrome P450 1B1) | IC50 (Cytochrome P450 1A1) | inhibition at 0.75 h, 0.3 µM (CYP1B1 [2]) | inhibition at 25 min, 0.3 µM (CYP1A1 [3]) | inhibition at 0.75 h, 3 µM (CYP1B1 [4]) | Ratio IC50 (Homo sapiens)
C#C[C@]1(O)CC[C@H]2[C@@H]3CCc4cc(O)c(-c5ccc(OC)cc5)cc4[C@H]3CC[C@@]21C | 23% | 370 nM | 9200 nM | 58% | 7% | 94% | 25
COc1ccc(-c2cc3c(cc2OC)CC[C@@H]2[C@@H]3CC[C@]3(C)C(=O)CC[C@@H]23)cc1 | 4% |  |  | 38% | 1% | 79% | 
O=c1cc(-c2ccccc2)oc2c1ccc1ccccc12 [ALPHA-NAPHTHOFLAVONE] | 75% |  | 2700 nM |  | 30% | 101% | 
C[C@]12CC[C@@H]3c4cc(-c5cccc(Cl)c5)c(O)cc4CC[C@H]3[C@@H]1CC[C@@H]2O | 51% |  |  | 91% | 16% | 100% | 
C[C@]12CC[C@@H]3c4cc(-c5ccc(F)cc5)c(O)cc4CC[C@H]3[C@@H]1CCC2=O | 8% |  |  | 71% | 2% | 101% | 
COc1ccc(-c2cc3c(cc2OC)CC[C@@H]2[C@@H]3CC[C@@]3(C)[C@H]2CC[C@]3(C)O)cc1 | 6% |  |  | 8% | 2% | 46% | 
C[C@]12CC[C@@H]3c4cc(-c5ccc(F)c(F)c5)c(O)cc4CC[C@H]3[C@@H]1CCC2=O | 15% |  |  | 77% | 1% | 100% | 
C[C@]12CC[C@@H]3c4cc(-c5cccc(O)c5)c(O)cc4CC[C@H]3[C@@H]1CC[C@@H]2O | 57% |  |  | 96% | 10% | 100% | 
C[C@]12CC[C@@H]3c4cc(-c5cccc(Cl)c5)c(O)cc4CC[C@H]3[C@@H]1CCC2=O | 11% |  |  | 74% | 5% | 100% | 
C[C@]12CC[C@@H]3c4cc(-c5ccc(F)c(F)c5)c(O)cc4CC[C@H]3[C@@H]1CC[C@@H]2O | 47% |  |  | 92% | 2% | 100% | 
C#C[C@]1(O)CC[C@H]2[C@@H]3CCc4cc(OC)c(-c5ccc(OC)cc5)cc4[C@H]3CC[C@@]21C | 9% |  |  | 6% | 4% | 55% | 
C[C@]12CC[C@@H]3c4cc(-c5ccncc5)c(O)cc4CC[C@H]3[C@@H]1CC[C@@H]2O | 14% | 240 nM | 3900 nM |  | 5% | 102% | 16
C[C@]12CC[C@@H]3c4cc(-c5cccc(O)c5)c(O)cc4CC[C@H]3[C@@H]1CCC2=O | 39% |  |  | 92% | 10% | 103% | 
COc1ccc(-c2cc3c(cc2OC)CC[C@@H]2[C@@H]3CC[C@]3(C)[C@@H](OC)CC[C@@H]23)cc1 | 5% |  |  | 11% | 1% | 20% | 
C[C@]12CC[C@@H]3c4cc(-c5ccccc5)c(O)cc4CC[C@H]3[C@@H]1CCC2=O | 16% |  |  | 69% | 5% | 101% | 
C[C@]12CC[C@@H]3c4cc(-c5ccc(F)cc5)c(O)cc4CC[C@H]3[C@@H]1CC[C@@H]2O | 0% | 240 nM | 4900 nM | 91% | 3% | 103% | 20
